The text below walks through data of patent US9290487B2, “Pharmaceutical composition for treating diabetes” (Ajinomoto Co., Inc., priority 2011, dated 2016).

Each structure is given as a SMILES string.

The term EC50 denotes the concentration needed to bring the measured effect to its halfway point.

For the first test, the target named is human GYS1 (glycogen synthase) (Homo sapiens (Human), UniProt P13807). Kind of test: Measurement of glycogen synthase activity (coupled pyruvate kinase/lactate dehydrogenase assay, absorbance at 340 nm). Conditions: concentration inducing relative activity of 50% (100% = Ex. 1 of WO/2011/058154 at 10 μM); incubation at 30° C. for 25 minutes (Examples 1 to 10). Type of test: biochemical. The method, then: A human GYS1 expression plasmid (pCDNA3.1(+)-hGYS1) was constructed by the following method. Using a human skeletal muscle cDNA of Human MTC Panel I (Takara Bio Inc., 636742) as a template, a human GYS1 gene was amplified by a PCR method using cloning primers (Forward Primer: ATGCCTTTAAACCGCAC (SEQ ID NO: 1), Reverse Primer: TTAGTTACGCTCCTCGC (SEQ ID NO: 2)). Using the amplified human GYS1 sequence as a template, a restriction enzyme sequence was added by a PCR method using sub-cloning primers (Forward Primer: […] (SEQ ID NO: 3), Reverse Primer: […] (SEQ ID NO: 4)). Then, the human GYS1 gene was introduced between a Xho I site and a Xba I site of pCDNA3.1(+) (Invitrogen Corporation, V790-20).
Chain of human GYS1 (glycogen synthase) (P13807 whole entry): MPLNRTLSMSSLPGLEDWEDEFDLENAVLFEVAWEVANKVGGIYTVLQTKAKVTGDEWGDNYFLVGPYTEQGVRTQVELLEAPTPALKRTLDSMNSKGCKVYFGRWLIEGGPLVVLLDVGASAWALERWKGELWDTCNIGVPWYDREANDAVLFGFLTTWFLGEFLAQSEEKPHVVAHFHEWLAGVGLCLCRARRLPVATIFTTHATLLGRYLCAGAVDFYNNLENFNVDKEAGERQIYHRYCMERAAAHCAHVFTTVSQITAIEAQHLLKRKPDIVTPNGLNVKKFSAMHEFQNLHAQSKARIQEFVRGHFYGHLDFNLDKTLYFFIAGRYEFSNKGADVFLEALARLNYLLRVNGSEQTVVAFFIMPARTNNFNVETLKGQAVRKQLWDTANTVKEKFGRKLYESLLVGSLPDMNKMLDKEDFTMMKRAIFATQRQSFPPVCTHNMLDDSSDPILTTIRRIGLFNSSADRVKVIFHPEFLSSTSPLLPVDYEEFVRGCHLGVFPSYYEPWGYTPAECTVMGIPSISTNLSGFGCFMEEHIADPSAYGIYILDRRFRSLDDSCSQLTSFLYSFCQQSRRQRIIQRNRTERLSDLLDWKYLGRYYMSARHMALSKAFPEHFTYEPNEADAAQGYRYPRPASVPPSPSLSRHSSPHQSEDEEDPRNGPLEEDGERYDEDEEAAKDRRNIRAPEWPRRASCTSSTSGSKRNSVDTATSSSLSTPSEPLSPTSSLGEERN
Glycogen synthase was prepared by the following method according to the published article (THE JOURNAL OF BIOLOGICAL CHEMISTRY Vol. 269, No. 41, 25534-25542, 1994). Human kidney-derived HEK293T cells were seeded in a dish (Thermo Fisher Scientific Inc., 168381) using a 10% FBS-containing DMEM (Nacalai Tesque, Inc., 0845874) medium, and cultured overnight. Then, using Lipofectamine LTX (Invitrogen Corporation, 15338-100), the human GYS1 expression vector was transfected according to the attached manual. After culturing under conditions of 37° C. and 5% CO2 for 2 days, the resultant was dissolved in a lysis buffer (50 mM Tris-HCl (pH 8.0), 10 mM EDTA, 2 mM EGTA, 100 mM NaF, 1 mM PMSF, 1 mM DTT, 1× Complete (Roche Diagnostics K. K., 1873580)), homogenized, and then centrifuged at 16000×g at 4° C. for 15 minutes. To the precipitated fraction, a lysis buffer was added. Re-dissolved fractions were used as glycogen synthase for evaluation.
The glycogen synthase activity was measured by the following method. To a polystyrene 96-well plate, a solution containing 30 mM glycylglycine (pH 7.3), 40 mM KCl, 20 mM MgCl2, 9.2% DMSO containing one of the test compounds at various concentrations, and 10 mM glucose-6-phosphate (Sigma-Aldrich Corporation, G7879) was added by 12 μL/well.
Next, a substrate solution containing 30 mM glycylglycine (pH 7.3), 4.3 mg/mL of glycogen (Sigma-Aldrich Corporation, G8876), 21.6 mM UDP-glucose (Sigma-Aldrich Corporation, U4625), 21.6 mM phosphoenolpyruvic acid (Sigma-Aldrich Corporation, P0564), and 4.05 mM NADH (Sigma-Aldrich Corporation, N8129) was added by 18 μL/well.
Further, an enzyme solution containing 50 mM Tris-HCl (pH 8.0), 27 mM DTT (Nacalai Tesque, Inc., 14128-04), 0.2 mg/mL of bovine serum albumin, 0.17 mg/mL of the glycogen synthase, 1.5 μL of a pyruvate kinase/lactate dehydrogenase solution (Sigma-Aldrich Corporation, P0294) was added by 18 μL/well to prepare a reaction solution. After the reaction solution was incubated (at 30° C. for 25 minutes for Examples 1 to 10, at 37° C. for 20 minutes for Examples 11 to 75), the absorbance at 340 nm was measured using Benchmark Plus (Bio-Rad Laboratories, Inc.).
The activities of the test compounds were calculated by the following method. The change in the absorbance (ΔA340) was calculated by subtracting the absorbance at 340 nm of the reaction solution containing the compound and DMSO from the absorbance at 340 nm of a reaction solution not containing the compound but containing only DMSO. The ΔA340 of the reaction solution containing the compound of Example 1 in WO/2011/058154 at the final concentration of 10 μM was taken as 100% to calculate the relative activity (%) of the test compounds at various concentrations. EC50 representing the concentration of the compound which induces an increase in the relative activity to 50% was calculated using XLfit (idbs).
`O=C(O)[C@@H]1CCCN1C(=O)c1cccc(COc2ccc(-c3ccc(F)c4ccoc34)cc2)c1` [compound of Ex. 3, 1-(3-{[4-(4-fluoro-1-benzofuran-7-yl)phenoxy]methyl}benzoyl)-L-proline] came in with a concentration for a half-maximal effect (EC50) of 110 nM.

Compound `CN(CC(=O)O)C(=O)c1cccc(COc2ccc(-c3cc(F)cc4c3OCC4)cc2)c1` [compound of Ex. 2, N-(3-{[4-(5-fluoro-2,3-dihydro-1-benzofuran-7-yl)phenoxy]methyl}benzoyl)-N-methylglycine] had an EC50 of 590 nM.

Staying with this test, now noted: concentration inducing relative activity of 50% (100% = Ex. 1 of WO/2011/058154 at 10 μM); incubation at 37° C. for 20 minutes (Examples 11 to 75).
`COCc1coc2c(-c3ccc(OCc4cccc(C(=O)N5CCC[C@H]5C(=O)O)c4)cc3)cc(F)c(F)c12` [compound of Ex. 45, 1-[3-({4-[4,5-difluoro-3-(methoxymethyl)-1-benzofuran-7-yl]phenoxy}methyl)benzoyl]-L-proline] registered a concentration giving a half-maximal response (EC50) of 800 nM.

`O=C(O)[C@@H]1CCCN1C(=O)c1cccc(COc2ccc(-c3cc(F)c4occc4c3F)cc2)c1` [compound of Ex. 17, 1-(3-{[4-(4,7-difluoro-1-benzofuran-5-yl)phenoxy]methyl}benzoyl)-L-proline] yielded an EC50 of 270 nM.

The compound `N#Cc1cc2c(F)c(F)cc(-c3ccc(OCc4cccc(C(=O)N5CCC[C@H]5C(=O)O)c4)cc3)c2s1` [compound of Ex. 67, 1-(3-{[4-(2-cyano-4,5-difluoro-1-benzothien-7-yl)phenoxy]methyl}benzoyl)-L-proline] gave a 50% effective concentration (EC50) of 590 nM.

Compound `O=C(O)[C@@H]1CCCN1C(=O)c1cccc(COc2ccc(-c3ccc(F)c4occc34)cc2)c1` [compound of Ex. 25, 1-(3-{[4-(7-fluoro-1-benzofuran-4-yl)phenoxy]methyl}benzoyl)-L-proline] returned an EC50 of 400 nM.

In the case of `Cc1cc2c(-c3ccc(OCc4cccc(C(=O)N5CCC[C@H]5C(=O)O)c4)cc3)cc(F)c(F)c2[nH]1` [compound of Ex. 41, 1-(3-{[4-(6,7-difluoro-2-methyl-1H-indol-4-yl)phenoxy]methyl}benzoyl)-L-proline], the EC50 was found to be 100 nM.

The compound `C[C@@H](C(=O)O)N(C)C(=O)c1cccc(COc2ccc(-c3cc(F)c(F)c4ccoc34)cc2)c1` [compound of Ex. 63, N-(3-{[4-(4,5-difluoro-1-benzofuran-7-yl)phenoxy]methyl}benzoyl)-N-methyl-L-alanine] displayed an EC50 of 220 nM.

Compound `CSc1cc(F)c(F)cc1-c1ccc(OCc2cccc(C(=O)N3CCC[C@H]3C(=O)O)c2)cc1` [compound of Ex. 38, 1-[3-({[4′,5′-difluoro-2′-(methylthio)biphenyl-4-yl]oxy}methyl)benzoyl]-L-proline] had a concentration for a half-maximal effect (EC50) of 29 nM.

Compound `N#CCOc1cc(-c2ccc(OCc3cccc(C(=O)N4CCC[C@H]4C(=O)O)c3)cc2)cc(F)c1F` [compound of Ex. 48, 1-[3-({[3′-(cyanomethoxy)-4′,5′-difluorobiphenyl-4-yl]oxy}methyl)benzoyl]-L-proline] displayed an EC50 of 120 nM.

As to `COCc1cc2c(F)c(F)cc(-c3ccc(OCc4cccc(C(=O)N5CCC[C@H]5C(=O)O)c4)cc3)c2s1` [compound of Ex. 74, 1-[3-({4-[4,5-difluoro-2-(methoxymethyl)-1-benzothien-7-yl]phenoxy}methyl)benzoyl]-L-proline], a half-maximal response (EC50) required 200 nM.

In the case of `[2H]C([2H])([2H])Oc1cc(F)c(F)cc1-c1ccc(OCc2cccc(C(=O)N3CCC[C@H]3C(=O)O)c2)cc1` [compound of Ex. 37, 1-(3-{[(4′,5′-difluoro-2′-d3 methoxybiphenyl-4-yl)oxy]methyl}benzoyl)-L-proline], the response was half-maximal at 10 nM (EC50).

In the case of `O=C(O)[C@@H]1CCCN1C(=O)c1cccc(COc2ccc(-c3cc(F)c(F)c4[nH]ccc34)cc2)c1` [compound of Ex. 33, 1-(3-{[4-(6,7-difluoro-1H-indol-4-yl)phenoxy]methyl}benzoyl)-L-proline], a half-maximal response (EC50) required 34 nM.

For the compound `O=C(O)[C@@H]1CCCN1C(=O)c1cccc(COc2ccc(-c3cc(F)c4occc4c3)cc2)c1` [compound of Ex. 14, 1-(3-{[4-(7-fluoro-1-benzofuran-5-yl)phenoxy]methyl}benzoyl)-L-proline], the midpoint of the response, the EC50, lay at 70 nM.

`Cc1csc2c(-c3ccc(OCc4cccc(C(=O)N5CCC[C@H]5C(=O)O)c4)cc3)cc(F)c(F)c12` [compound of Ex. 55, 1-(3-{[4-(4,5-difluoro-3-methyl-1-benzothien-7-yl)phenoxy]methyl}benzoyl)-L-proline] came in with an EC50 of 85 nM.

`N#Cc1cc2c(F)c(F)cc(-c3ccc(OCc4cccc(C(=O)N5CCC[C@H]5C(=O)O)c4)cc3)c2o1` [compound of Ex. 54] had a concentration for a half-maximal effect (EC50) of 260 nM.

Consider `O=C(O)[C@@H]1CCCN1C(=O)c1cccc(COc2ccc(-c3ccc(F)c4c3OCO4)cc2)c1` [compound of Ex. 13, 1-(3-{[4-(7-fluoro-1,3-benzodioxol-4-yl)phenoxy]methyl}benzoyl)-L-proline], for which a half-maximal response (EC50) required 270 nM.

Compound `N#CCOc1cc(F)c(F)cc1-c1ccc(OCc2cccc(C(=O)N3CCC[C@H]3C(=O)O)c2)cc1` [compound of Ex. 35, 1-[3-({[2′-(cyanomethoxy)-4′,5′-difluorobiphenyl-4-yl]oxy}methyl)benzoyl]-L-proline] displayed an EC50 of 15 nM.

For the compound `C=CCOc1cc(F)c(F)cc1-c1ccc(OCc2cccc(C(=O)N3CCC[C@H]3C(=O)O)c2)cc1` [compound of Ex. 36, 1-[3-({[2′-(allyloxy)-4′,5′-difluorobiphenyl-4-yl]oxy}methyl)benzoyl]-L-proline], the 50% effective concentration (EC50) is 110 nM.

For the compound `O=C(O)[C@@H]1CCCN1C(=O)c1cccc(COc2ccc(-c3c(F)cc(F)c4ccoc34)cc2)c1` [compound of Ex. 20, 1-(3-{[4-(4,6-difluoro-1-benzofuran-7-yl)phenoxy]methyl}benzoyl)-L-proline], the response was half-maximal at 64 nM (EC50).

Turning to `O=C(O)[C@@H]1C=CCN1C(=O)c1cccc(COc2ccc(-c3cc(F)c(F)c4ccoc34)cc2)c1` [compound of Ex. 64, (2S)-1-(3-{[4-(4,5-difluoro-1-benzofuran-7-yl)phenoxy]methyl}benzoyl)-2,5-dihydro-1H-pyrrole-2-carboxylic acid], the concentration for a half-maximal effect (EC50) came to 140 nM.

For the compound `Cc1coc2c(-c3ccc(OCc4cccc(C(=O)N5CCC[C@H]5C(=O)O)c4)cc3)cc(F)c(F)c12` [compound of Ex. 21, 1-(3-{[4-(4,5-difluoro-3-methyl-1-benzofuran-7-yl)phenoxy]methyl}benzoyl)-L-proline], the EC50 was determined as 54 nM.

In the case of `O=C(O)[C@@H]1CCCN1C(=O)c1cccc(COc2ccc(-c3cc(F)c(F)c4c3C=CCO4)cc2)c1` [compound of Ex. 31, 1-(3-{[4-(7,8-difluoro-2H-chromen-5-yl)phenoxy]methyl}benzoyl)-L-proline], the concentration giving a half-maximal response (EC50) turned out to be 100 nM.

With `O=C(O)[C@@H]1CCCN1C(=O)c1cccc(COc2ccc(-c3cc(F)cc4ccoc34)cc2)c1` [compound of Ex. 12, 1-(3-{[4-(5-fluoro-1-benzofuran-7-yl)phenoxy]methyl}benzoyl)-L-proline], the midpoint of the response, the EC50, lay at 350 nM.

Compound `O=C(O)[C@@H]1CCCN1C(=O)c1cccc(COc2ccc(-c3ccc(F)c4[nH]ccc34)cc2)c1` [compound of Ex. 29, 1-(3-{[4-(7-fluoro-1H-indol-4-yl)phenoxy]methyl}benzoyl)-L-proline] showed a concentration for a half-maximal effect (EC50) of 230 nM.
